Data on 21 molecules can be found in patent US11155517B2, “4-substituted phenylamine derivatives and their use to protect crops by fighting undesired phytopathogenic micoorganisms” (PI INDUSTRIES LTD., priority 2016, dated 2021).

A value given as a limit tells only on which side of the number the result lay.

Holding throughout (format): cell-based
One experiment deals with Fusarium culmorum. The experiment in a line: Fusarium culmorum (foot rot of cereals) in vitro test, radial growth on Potato Dextrose Agar. The conditions noted are these: for inhibition of growth at 300 ppm: Fusarium culmorum, 168 h, read-out: % control compared to the untreated check (radial growth); for % control compared to the untreated check (radial growth): 300 ppm, seven days, 25° C.

The subject of a further experiment is Pyricularia oryzae. In words: microbe, parasite or virus in culture. The conditions noted are these: 168 h, read-out: % control compared to the untreated check (radial growth).
The test system of the next experiment is Alternaria solani. The experiment in a line: Alternaria solani (early blight of tomato/potato) in vitro test, radial growth on Potato Dextrose Agar. The conditions noted are these: 168 h, 300 ppm, seven days, 25° C., read-out: % control compared to the untreated check (radial growth).
A further experiment concerns Rhizoctonia solani. In words: Rhizoctonia solani (rice sheath blight/potato black scurf) in vitro test, radial growth on Potato Dextrose Agar. The conditions noted are these: 168 h, 300 ppm, seven days, 25° C., read-out: % control compared to the untreated check (radial growth).
In a further experiment the test system is Colletotrichum capsici. In words: Colletotrichum capsici (anthracnose) in vitro test, radial growth on Potato Dextrose Agar. The conditions noted are these: Colletotrichum truncatum, 168 h; 300 ppm; seven days, 25° C.; read-out: % control compared to the untreated check (radial growth).
For a further experiment, the system named is Botrytis cinerea. In words: Botrytis cinerea (gray mold) in vitro test, radial growth on Potato Dextrose Agar. The conditions noted are these: 168 h, 300 ppm, seven days, 22° C., read-out: % (control) compared to the untreated check (radial growth).
In another experiment the test system is Septoria lycopersici. In words: Septoria lycopersici (leaf spot of tomato) in vitro test, radial growth on Potato Dextrose Agar. The conditions noted are these: 168 h, seven days, 25° C., read-out: % control compared to the untreated check (radial growth).

As to `CCN(C)C=Nc1cc(C)c(Cc2ccc(F)c(C)c2)cc1Cl` [Compound 119, N′-(2-chloro-4-(4-fluoro-3-methylbenzyl)-5-methylphenyl)-N-ethyl-N-methylformimidamide], the inhibition of growth at 300 ppm in the experiment with Fusarium culmorum was 75%; in the experiment on Pyricularia oryzae, > 75%; in the experiment on Alternaria solani, > 75%; in the experiment on Rhizoctonia solani it was > 80%; with Colletotrichum capsici it was > 80%; with Botrytis cinerea, > 80%.
As to `Cc1cc(N=CN(C)CC2CC2)c(C)cc1Cc1ccccc1F` [Compound 87, N-(cyclopropylmethyl)-N-(4-(2-fluorobenzyl)-2,5-dimethylphenyl)-N-methylformimidamide], the “% control compared to the untreated check (radial growth)” value (“% control” below) with Fusarium culmorum is reported as 75%.
In the case of `CCN(C)C=Nc1cc(C)c(Cc2cc(F)cc(F)c2)cc1C` [Compound 132, N′-(4-(3,5-difluorobenzyl)-2,5-dimethylphenyl)-N-ethyl-N-methylformimidamide], the inhibition of growth at 300 ppm in the experiment with Fusarium culmorum is 75%; in the experiment on Pyricularia oryzae, > 75%; in the experiment on Alternaria solani, > 75%; in the experiment with Rhizoctonia solani it was > 80%; with Colletotrichum capsici, > 80%; with Botrytis cinerea, > 80%.
As to `CCN(C)C=Nc1cc(C)c(Cc2cc(C)cc(C)c2)cc1Cl` [Compound 130, N′-(2-chloro-4-(3,5-dimethylbenzyl)-5-methylphenyl)-N-ethyl-N-methylformimidamide], the inhibition of growth at 300 ppm in the experiment with Pyricularia oryzae was > 75%; in the experiment on Septoria lycopersici it was > 70%; with Alternaria solani, > 75%; with Rhizoctonia solani, > 80%; with Colletotrichum capsici, > 80%; with Botrytis cinerea it was > 80%.
Take `CCN(C)C=Nc1ccc(Cc2ccccc2F)cc1` [Compound 163, N-ethyl-N′(4-(2-fluorobenzyl)phenyl)-N-methylformimidamide]: the inhibition of growth at 300 ppm was > 75% with Pyricularia oryzae; > 70% in the experiment with Septoria lycopersici; > 75% in the experiment with Alternaria solani; > 80% in the experiment with Rhizoctonia solani; > 80% in the experiment on Colletotrichum capsici; > 80% in the experiment on Botrytis cinerea.
Consider `CCN(C)C=Nc1cc(F)c(Cc2ccc(C)cc2)cc1F` [Compound 245, N′-(2,5-difluoro-4-(4-methylbenzyl)phenyl)-N-ethyl-N-methylformimidamide], for which the inhibition of growth at 300 ppm is > 75% in the experiment on Pyricularia oryzae; > 70% in the experiment with Septoria lycopersici; > 75% with Alternaria solani; > 80% with Rhizoctonia solani; > 80% in the experiment on Colletotrichum capsici; > 80% in the experiment with Botrytis cinerea.
Regarding `CCN(C)C=Nc1cc(C)c(Cc2cccc(C)c2C)cc1Cl` [Compound 170, N-(2-chloro-4-(2,3-dimethylbenzyl)-5-methylphenyl)-N-ethyl-N-methylformimidamide], the “% control” value in the experiment on Fusarium culmorum is given as 75%.
As to `Cc1cc(N=CN2CCSCC2)c(C)cc1Cc1ccccc1Cl` [Compound 86, N-(4-(2-chlorobenzyl)-2,5-dimethylphenyl)-1-thiomorpholinomethanimine], the inhibition of growth at 300 ppm with Pyricularia oryzae is > 75%; with Septoria lycopersici it was > 70%; in the experiment on Alternaria solani, > 75%; with Rhizoctonia solani, > 80%; with Colletotrichum capsici, > 80%; in the experiment on Botrytis cinerea, > 80%.
Regarding `Cc1cc(N=CN2CCCCC2)c(C)cc1Cc1cccc(Br)c1F` [Compound 37, N-(4-(3-bromo-2-fluorobenzyl)-2,5-dimethylphenyl)-1-(piperidin-1-yl)methanimine], the inhibition of growth at 300 ppm is > 75% with Pyricularia oryzae; > 70% in the experiment with Septoria lycopersici; > 75% in the experiment with Alternaria solani; > 80% in the experiment on Rhizoctonia solani; > 80% in the experiment with Colletotrichum capsici; > 80% with Botrytis cinerea.
For `CCN(C)C=Nc1cc(Cl)c(C(C)(C(=O)N(C)C)c2cccc(F)c2)cc1C` (centres unmarked) [Compound 239, 2-(2-chloro-4-(((ethyl(methyl)amino)methylene)amino)-5-methylphenyl)-2-(3-fluorophenyl)-N,N-dimethylpropanamide], the inhibition of growth at 300 ppm with Fusarium culmorum was 75%; with Pyricularia oryzae it was > 75%; in the experiment with Alternaria solani it was > 75%; with Rhizoctonia solani it was > 80%; in the experiment on Colletotrichum capsici, > 80%; in the experiment with Botrytis cinerea, > 80%.
Turning to `CCN(C)C=Nc1cc(F)c(Cc2ccccc2Cl)cc1F` [Compound 253, N′-(4-(2-chlorobenzyl)-2,5-difluorophenyl)-N-ethyl-N-methylformimidamide], the inhibition of growth at 300 ppm in the experiment on Fusarium culmorum is 75%; with Pyricularia oryzae, > 75%; in the experiment on Alternaria solani, > 75%; in the experiment on Rhizoctonia solani it was > 80%; in the experiment on Botrytis cinerea, > 80%.
Take `CCN(C)C=Nc1cc(C)c(Cc2ccc(OC(F)(F)F)cc2)cc1Cl` [Compound 121, N′-(2-chloro-5-methyl-4-(4-(trifluoromethoxy)benzyl)phenyl)-N-ethyl-N-methylformimidamide]: the inhibition of growth at 300 ppm in the experiment with Fusarium culmorum was 75%; in the experiment with Pyricularia oryzae, > 75%; in the experiment on Alternaria solani, > 75%; with Rhizoctonia solani, > 80%; with Colletotrichum capsici it was > 80%; in the experiment with Botrytis cinerea, > 80%.
On to `CCN(C)C=Nc1cc(F)c(Cc2cccc(F)c2)cc1F` [Compound 269, N′-(2,5-difluoro-4-(3-fluorobenzyl)phenyl)-N-ethyl-N-methylformimidamide], for which the inhibition of growth at 300 ppm in the experiment on Fusarium culmorum is 75%; in the experiment with Pyricularia oryzae it was > 75%; in the experiment on Alternaria solani, > 75%; in the experiment with Rhizoctonia solani it was > 80%; in the experiment with Colletotrichum capsici it was > 80%; in the experiment on Botrytis cinerea, > 80%.
Turning to `CCN(C)C=Nc1cc(C)c(Cc2c(F)cccc2Cl)cc1C` [Compound 155, N′-(4-(2-chloro-6-fluorobenzyl)-2,5-dimethylphenyl)-N-ethyl-N-methylformimidamide], the inhibition of growth at 300 ppm is 75% with Fusarium culmorum; > 75% in the experiment on Pyricularia oryzae; > 75% in the experiment with Alternaria solani; > 80% in the experiment with Rhizoctonia solani; > 80% with Colletotrichum capsici; > 80% in the experiment with Botrytis cinerea.
With `CCN(C)C=Nc1cc(C)c(Cc2ccc(C)cc2)cc1F` [Compound 211, N-ethyl-N-(2-fluoro-5-methyl-4-(4-methylbenzyl)phenyl)-N-methylformimidamide], the “% control” value in the experiment on Fusarium culmorum is given as 75%.
For `CCN(C)C=Nc1cc(C)c(Cc2cc(C(F)(F)F)cc(Cl)c2F)cc1C` [Compound 134, N′-(4-(3-chloro-2-fluoro-5-(trifluoromethyl)benzyl)-2,5-dimethylphenyl)-N-ethyl-N-methylformimidamide], the inhibition of growth at 300 ppm with Pyricularia oryzae is > 75%; in the experiment on Septoria lycopersici, > 70%; in the experiment with Alternaria solani, > 75%; in the experiment with Rhizoctonia solani, > 80%; with Colletotrichum capsici, > 80%; with Botrytis cinerea, > 80%.
Turning to `CCN(C)C=Nc1cc(C)c(Cc2ccc(F)c(C(F)(F)F)c2)cc1Cl` [Compound 181, N′-(2-chloro-4-(4-fluoro-3-(trifluoromethyl)benzyl)-5-methylphenyl)-N-ethyl-N-methylformimidamide], the inhibition of growth at 300 ppm with Fusarium culmorum is 75%; in the experiment on Pyricularia oryzae it was > 75%; in the experiment on Alternaria solani, > 75%; with Rhizoctonia solani it was > 80%; in the experiment with Botrytis cinerea it was > 80%.
In the case of `CCN(C)C=Nc1cc(C)c(Cc2cc(F)cc(OC)c2)cc1C` [Compound 156, N-ethyl-N′-(4-(3-fluoro-5-methoxybenzyl)-2,5-dimethylphenyl)-N-methylformimidamide], the inhibition of growth at 300 ppm in the experiment with Fusarium culmorum is 75%; in the experiment on Pyricularia oryzae, > 75%; with Alternaria solani, > 75%; with Rhizoctonia solani, > 80%; in the experiment on Colletotrichum capsici, > 80%; with Botrytis cinerea, > 80%.
In the case of `CCN(C)C=Nc1cc(C)c(C(C#N)c2ccc(F)cc2)cc1Cl` (centres unmarked) [Compound 189, N′-(2-chloro-4-(cyano(4-fluorophenyl)methyl)-5-methylphenyl)-N-ethyl-N-methylformimidamide], the inhibition of growth at 300 ppm was 75% in the experiment with Fusarium culmorum, > 75% in the experiment on Pyricularia oryzae, > 80% with Rhizoctonia solani and > 80% in the experiment with Botrytis cinerea.
As to `CCN(C)C=Nc1cc(F)c(Cc2ccccc2C)cc1F` [Compound 254, N′-(2,5-difluoro-4-(2-methylbenzyl)phenyl)-N-ethyl-N-methylformimidamide], the inhibition of growth at 300 ppm was > 75% with Pyricularia oryzae; > 70% with Septoria lycopersici; > 75% in the experiment with Alternaria solani; > 80% in the experiment with Rhizoctonia solani; > 80% in the experiment with Colletotrichum capsici; > 80% in the experiment on Botrytis cinerea.
Take `CCN(C)C=Nc1ccc(Cc2ccccc2Cl)cc1` [Compound 164, N′-(4-(2-chlorobenzyl)phenyl)-N-ethyl-N-methylformimidamide]: the inhibition of growth at 300 ppm in the experiment on Pyricularia oryzae is > 75%; in the experiment with Septoria lycopersici, > 70%; in the experiment on Alternaria solani, > 75%; with Rhizoctonia solani, > 80%; in the experiment on Colletotrichum capsici, > 80%; with Botrytis cinerea it was > 80%.
